Measured values taken from paper PMC10323144, “Garbage in, garbage out: how reliable training data improved a virtual screening approach against SARS-CoV-2 MPro” (Frontiers in Pharmacology, 2023).

Molecular target: SARS-CoV-2 MPro (Severe acute respiratory syndrome coronavirus 2, UniProt P0DTD1)
Experiment: MPro activity assay (de-quenching of Edans fluorescence on cleavage of a Dabcyl/Edans peptide)
Type: biochemical
Details: for Class (MPro activity class): in-house acquired data, internal screening under standardized conditions (128 compounds)

Row | SMILES | Class (MPro activity class) | IC50 (60 min pre-incubation, 5 μM substrate) [µM] | activity at 25 µM (read-out: % activity MPro) [%]
1 | CC(=NNC(N)=O)c1cc2ccccc2oc1=O [COV19144] | 0 (compounds with IC50 > 20 μM, percentage inhibition <80% at 20 µM or 50 μM, or percentage enzyme inhibition <50% at 10 µM were labelled as INACTIVE) | – | –
2 | CC(=NNC(N)=[Se])c1cc2ccccc2oc1=O [COV19145] | 0 (compounds with IC50 > 20 μM, percentage inhibition <80% at 20 µM or 50 μM, or percentage enzyme inhibition <50% at 10 µM were labelled as INACTIVE) | – | –
3 | CN(CCc1ccc(Cl)cc1)C(=S)c1ccccc1I [COV19183] | 0 (compounds with IC50 > 20 μM, percentage inhibition <80% at 20 µM or 50 μM, or percentage enzyme inhibition <50% at 10 µM were labelled as INACTIVE) | – | –
4 | CC(C)(C)OC(=O)NC1CCCN(CC(=O)NC(Cc2ccccc2)C(=O)Nc2nc3cc(Sc4ccccc4)ccc3[nH]2)C1=O (centres unmarked) [COV19184] | 0 (compounds with IC50 > 20 μM, percentage inhibition <80% at 20 µM or 50 μM, or percentage enzyme inhibition <50% at 10 µM were labelled as INACTIVE) | – | –
5 | CCCOC(=O)C(Cc1ccccc1)NC(=O)CN1CCCC(NC(=O)OC(C)(C)C)C1=O (centres unmarked) [COV19185] | 0 (compounds with IC50 > 20 μM, percentage inhibition <80% at 20 µM or 50 μM, or percentage enzyme inhibition <50% at 10 µM were labelled as INACTIVE) | – | –
6 | CC(=O)OCC1OC(OC(C)=O)C(NC(=O)C(Cc2ccccc2)NC(=O)CN2CCCC(NC(=O)OC(C)(C)C)C2=O)C(OC(C)=O)C1OC(C)=O (centres unmarked) [COV19186] | 1 (Compounds with IC50 < 10 µM or with a percentage of enzyme inhibition >50% at 10 µM were labelled as ACTIVE) | – | –
7 | C(=Cc1ccco1)C=Nn1cnnc1 [COV19287] | 0 (compounds with IC50 > 20 μM, percentage inhibition <80% at 20 µM or 50 μM, or percentage enzyme inhibition <50% at 10 µM were labelled as INACTIVE) | – | –
8 | Cc1c(C(=O)Nc2ccccc2)[n+]([O-])c2cc(CN(C)CC=Cc3ccccc3)ccc2[n+]1[O-] [COV19291] | 0 (compounds with IC50 > 20 μM, percentage inhibition <80% at 20 µM or 50 μM, or percentage enzyme inhibition <50% at 10 µM were labelled as INACTIVE) | – | –
9 | O=S(=O)(C=Cc1ccc2no[n+]([O-])c2c1)c1ccccc1 [COV19497] | 1 (Compounds with IC50 < 10 µM or with a percentage of enzyme inhibition >50% at 10 µM were labelled as ACTIVE) | – | –
10 | O=S(=O)(C=Cc1ccc2nonc2c1)c1ccccc1 [COV19498] | 0 (compounds with IC50 > 20 μM, percentage inhibition <80% at 20 µM or 50 μM, or percentage enzyme inhibition <50% at 10 µM were labelled as INACTIVE) | – | –
11 | O=S(=O)(C=Cc1ccc2no[n+]([O-])c2c1)c1ccc(Cl)cc1 [COV19499] | 1 (Compounds with IC50 < 10 µM or with a percentage of enzyme inhibition >50% at 10 µM were labelled as ACTIVE) | – | –
12 | O=S(=O)(C=Cc1ccc2no[n+]([O-])c2c1)c1ccc(F)cc1 [COV19500] | 1 (Compounds with IC50 < 10 µM or with a percentage of enzyme inhibition >50% at 10 µM were labelled as ACTIVE) | – | –
13 | [O-][n+]1onc2ccc(C=CSc3ccc(F)cc3)cc21 [COV19501] | 1 (Compounds with IC50 < 10 µM or with a percentage of enzyme inhibition >50% at 10 µM were labelled as ACTIVE) | – | –
14 | Cc1ccc(S(=O)(=O)Nc2nc3cc(Cl)c(Oc4cccc(Cl)c4Cl)cc3[nH]2)cc1 [Cpd 31] | 0 (compounds with IC50 > 20 μM, percentage inhibition <80% at 20 µM or 50 μM, or percentage enzyme inhibition <50% at 10 µM were labelled as INACTIVE) | > 25 | –
15 | Nc1cccc(C(=O)Nc2nc3c(s2)CC(NC(=O)c2cc(Br)c(Br)[nH]2)CC3)c1 (centres unmarked) [Cpd 46] | 0 (compounds with IC50 > 20 μM, percentage inhibition <80% at 20 µM or 50 μM, or percentage enzyme inhibition <50% at 10 µM were labelled as INACTIVE) | – | –
16 | O=C(Nc1nc2c(s1)CC(NC(=O)c1cc(Br)c(Br)[nH]1)CC2)c1c[nH]cn1 (centres unmarked) [Cpd 47] | 0 (compounds with IC50 > 20 μM, percentage inhibition <80% at 20 µM or 50 μM, or percentage enzyme inhibition <50% at 10 µM were labelled as INACTIVE) | – | –
17 | Nc1nc2c(s1)CC(NC(=O)c1cc3cc(F)ccc3[nH]1)CC2 (centres unmarked) [Cpd 48] | 0 (compounds with IC50 > 20 μM, percentage inhibition <80% at 20 µM or 50 μM, or percentage enzyme inhibition <50% at 10 µM were labelled as INACTIVE) | – | –
18 | NC1CCc2nc(NC(=O)c3cc(Cl)c(Cl)[nH]3)sc2C1 (centres unmarked) [Cpd 49] | 0 (compounds with IC50 > 20 μM, percentage inhibition <80% at 20 µM or 50 μM, or percentage enzyme inhibition <50% at 10 µM were labelled as INACTIVE) | – | –
19 | CCOC(=O)C(=O)NC1CCc2nc(NC(=O)c3cc(Cl)c(Cl)[nH]3)sc2C1 (centres unmarked) [Cpd 50] | 0 (compounds with IC50 > 20 μM, percentage inhibition <80% at 20 µM or 50 μM, or percentage enzyme inhibition <50% at 10 µM were labelled as INACTIVE) | – | –
20 | O=C(O)C(=O)NC1CCc2nc(NC(=O)c3cc(Cl)c(Cl)[nH]3)sc2C1 (centres unmarked) [Cpd 51] | 0 (compounds with IC50 > 20 μM, percentage inhibition <80% at 20 µM or 50 μM, or percentage enzyme inhibition <50% at 10 µM were labelled as INACTIVE) | – | 107 ± 5.7

Row | SMILES | Class (MPro activity class) | IC50 (60 min pre-incubation, 5 μM substrate) [µM] | activity at 25 µM (read-out: % activity MPro) [%]
21 | COc1cccc(-n2c(NCCN3CCNCC3)nc3sc4c(c3c2=O)CCCC4)c1 [Cpd 52] | 0 (compounds with IC50 > 20 μM, percentage inhibition <80% at 20 µM or 50 μM, or percentage enzyme inhibition <50% at 10 µM were labelled as INACTIVE) | – | –
22 | COC(=O)CC(=O)Nc1nc2c(s1)CC(NC(=O)c1[nH]c(C)c(Cl)c1Cl)CC2 (centres unmarked) [Cpd 53] | 0 (compounds with IC50 > 20 μM, percentage inhibition <80% at 20 µM or 50 μM, or percentage enzyme inhibition <50% at 10 µM were labelled as INACTIVE) | – | –
23 | Cc1[nH]c(C(=O)NC2CCc3nc(NC(=O)CC(=O)O)sc3C2)c(Cl)c1Cl (centres unmarked) [Cpd 54] | 0 (compounds with IC50 > 20 μM, percentage inhibition <80% at 20 µM or 50 μM, or percentage enzyme inhibition <50% at 10 µM were labelled as INACTIVE) | – | –
24 | CCOC(=O)C(=O)Nc1nc2c(s1)CC(NC(=O)c1cc(Br)c(Br)[nH]1)CC2 (centres unmarked) [Cpd 55] | 0 (compounds with IC50 > 20 μM, percentage inhibition <80% at 20 µM or 50 μM, or percentage enzyme inhibition <50% at 10 µM were labelled as INACTIVE) | – | –
25 | O=C(O)C(=O)Nc1nc2c(s1)CC(NC(=O)c1cc(Br)c(Br)[nH]1)CC2 (centres unmarked) [Cpd 56] | 0 (compounds with IC50 > 20 μM, percentage inhibition <80% at 20 µM or 50 μM, or percentage enzyme inhibition <50% at 10 µM were labelled as INACTIVE) | – | –
26 | CCN(CC)c1ccc(-c2ccc(C(=O)OC)cc2)cc1 [Mal1] | 0 (compounds with IC50 > 20 μM, percentage inhibition <80% at 20 µM or 50 μM, or percentage enzyme inhibition <50% at 10 µM were labelled as INACTIVE) | – | –
27 | COC(=O)c1ccc(-c2ccc(C3C(Oc4ccccc4)C(=O)N3Cc3ccccc3)cc2)cc1 (centres unmarked) [Mal2] | 0 (compounds with IC50 > 20 μM, percentage inhibition <80% at 20 µM or 50 μM, or percentage enzyme inhibition <50% at 10 µM were labelled as INACTIVE) | – | –
28 | O=C1C(Oc2ccccc2)C(c2ccc(B(O)O)cc2)N1Cc1ccccc1 (centres unmarked) [Mal3] | 0 (compounds with IC50 > 20 μM, percentage inhibition <80% at 20 µM or 50 μM, or percentage enzyme inhibition <50% at 10 µM were labelled as INACTIVE) | – | –
29 | CC(C)(C)OC(=O)N1CCC(Oc2cc(C(=O)NCC(=O)O)ccc2NC(=O)c2cc(Br)c(Br)[nH]2)CC1 [UL-DBT26] | 0 (compounds with IC50 > 20 μM, percentage inhibition <80% at 20 µM or 50 μM, or percentage enzyme inhibition <50% at 10 µM were labelled as INACTIVE) | – | –
30 | Cc1[nH]c(C(=O)Nc2ccc(C(=O)O)cc2)c(Cl)c1Cl [UL-NNS 38-1] | 0 (compounds with IC50 > 20 μM, percentage inhibition <80% at 20 µM or 50 μM, or percentage enzyme inhibition <50% at 10 µM were labelled as INACTIVE) | – | –
31 | Nc1ncc2cc(-c3c(F)cccc3F)c(N)nc2n1 [ZEA107] | 0 (compounds with IC50 > 20 μM, percentage inhibition <80% at 20 µM or 50 μM, or percentage enzyme inhibition <50% at 10 µM were labelled as INACTIVE) | – | –
32 | Nc1ncc2cc(-c3ccc4c(c3)OCO4)c(N)nc2n1 [ZVR108] | 0 (compounds with IC50 > 20 μM, percentage inhibition <80% at 20 µM or 50 μM, or percentage enzyme inhibition <50% at 10 µM were labelled as INACTIVE) | – | –
33 | Nc1nc2nc(NCCCN3CCOCC3)ncc2cc1-c1c(Cl)cccc1Cl [ZVR130] | 0 (compounds with IC50 > 20 μM, percentage inhibition <80% at 20 µM or 50 μM, or percentage enzyme inhibition <50% at 10 µM were labelled as INACTIVE) | – | –
34 | COc1cc(OC)cc(-c2cc3cnc(N)nc3nc2N)c1 [ZVR-100] | 0 (compounds with IC50 > 20 μM, percentage inhibition <80% at 20 µM or 50 μM, or percentage enzyme inhibition <50% at 10 µM were labelled as INACTIVE) | – | –
35 | Nc1ncc(C(=O)N(Cc2ccccc2)Cc2ccccc2)o1 [ZVR-102] | 0 (compounds with IC50 > 20 μM, percentage inhibition <80% at 20 µM or 50 μM, or percentage enzyme inhibition <50% at 10 µM were labelled as INACTIVE) | – | –
36 | CCCCN(CCCC)C(=O)c1cnc(N)o1 [ZVR-103] | 0 (compounds with IC50 > 20 μM, percentage inhibition <80% at 20 µM or 50 μM, or percentage enzyme inhibition <50% at 10 µM were labelled as INACTIVE) | – | –
37 | CCn1nc(C)cc1C(=O)N(Cc1ccccc1)Cc1ccccc1 [ZVR-117] | 0 (compounds with IC50 > 20 μM, percentage inhibition <80% at 20 µM or 50 μM, or percentage enzyme inhibition <50% at 10 µM were labelled as INACTIVE) | – | –
38 | Cc1nc(N)sc1C(=O)N(Cc1ccccc1)Cc1ccccc1 [ZVR-119] | 0 (compounds with IC50 > 20 μM, percentage inhibition <80% at 20 µM or 50 μM, or percentage enzyme inhibition <50% at 10 µM were labelled as INACTIVE) | – | –
39 | CCOC(=O)CN(C(=O)C1(C)CCc2c(C)c(O)c(C)c(C)c2O1)C(C(=O)NCCc1ccccc1)c1ccccc1 (centres unmarked) [vCOV194134] | 0 (compounds with IC50 > 20 μM, percentage inhibition <80% at 20 µM or 50 μM, or percentage enzyme inhibition <50% at 10 µM were labelled as INACTIVE) | – | –
